Measured values reported in patent publication US10517889B2, “Modulators of SMAD7 expression” (Ionis Pharmaceuticals, Inc., priority 2017, dated 2019).
Strand notation (5' to 3'): a small letter for the sugar, then the base; units joined by * are phosphorothioate-linked, units joined directly phosphodiester-linked; [ ] holds rarer units or linkages, { } end groups; capitals alone tell only the bases. k = constrained ethyl (cEt); [5mC] = 5-methylcytosine; d = 2'-deoxy (DNA)

system: human SMAD7 mRNA; test: Antisense inhibition of human SMAD7 mRNA expression in Hep3B cells by 3-10-3 cEt gapmers, 10,000 nM, electroporation (Example 2); type: cell-based; conditions: Hep3B cells, 10,000 nM antisense oligonucleotide, electroporation, approximately 24 hours, RT-PCR primer probe set RTS5062, relative to untreated control cells
In short: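 qRT-PCR (RTS5062) of SMAD7 mRNA, normalised to RIBOGREEN total RNA, gave percent inhibition relative to untreated controls. Hep3B cells at 20,000 per well received 10,000 nM oligonucleotide by electroporation, with ~24 h treatment.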

| Substance | % Inhibition [%] |
| --- | --- |
| 799992 (kG*kG*k[5mC]*dA*d[5mC]*dG*dG*d[5mC]*d[5mC]*dG*d[5mC]*d[5mC]*dT*k[5mC]*k[5mC]*kT; antisense) [compound 799992] | 9 |
| 799971 (kG*kT*kA*dA*dA*dA*d[5mC]*dT*dT*dG*d[5mC]*dT*dG*kA*kG*kA; antisense) [compound 799971] | 31 |
| 799972 (k[5mC]*kA*k[5mC]*dA*dA*dG*dG*dA*d[5mC]*d[5mC]*d[5mC]*dT*dT*kG*k[5mC]*kT; antisense) [compound 799972] | 0 |
| 799872 (kA*kA*kG*dT*dT*dA*dA*dT*d[5mC]*dA*dT*dT*dA*k[5mC]*kT*kT; antisense) [compound 799872] | 0 |

same assay, conditions: Hep3B cells, electroporation with 10,000 nM antisense oligonucleotide, approximately 24 hours, RTS5062, percent inhibition of SMAD7 mRNA relative to untreated control cells

| Substance | % Inhibition [%] |
| --- | --- |
| 799744 (antisense kA*kA*kA*dG*dA*dA*dA*dA*dT*dG*dG*d[5mC]*d[5mC]*kT*kA*k[5mC]) [compound 799744] | 1 |
| 799649 (antisense kA*kA*kA*dT*dG*dA*dA*dA*dG*d[5mC]*d[5mC]*d[5mC]*d[5mC]*k[5mC]*kA*kG) [compound 799649] | 53 |
| 799293 (antisense k[5mC]*k[5mC]*kT*dT*dG*dA*dT*dG*d[5mC]*dT*dG*dA*dT*kT*kA*kT) [compound 799293] | 5 |
| 799823 (antisense kA*k[5mC]*kA*dG*dG*dA*dA*dA*dG*dT*dG*dG*dA*kG*kG*kA) [compound 799823] | 46 |
| 799827 (antisense kA*kA*k[5mC]*dT*dA*d[5mC]*dA*dA*d[5mC]*d[5mC]*dT*dT*dT*kT*kT*kA) [compound 799827] | 26 |

same assay, conditions: Hep3B cells, electroporation with 10,000 nM antisense oligonucleotide, approximately 24 hours, SMAD7 mRNA by RT-PCR (RTS5062), relative to untreated control cells

| Substance | % Inhibition [%] |
| --- | --- |
| 799941 (antisense kT*kT*kT*dA*d[5mC]*dT*dA*d[5mC]*d[5mC]*dT*dT*d[5mC]*d[5mC]*kA*kG*kA) [compound 799941] | 44 |
| 798905 (kG*kG*k[5mC]*dT*dG*dT*dT*dG*dA*dA*dG*dA*dT*kG*kA*k[5mC]; antisense) [compound 798905] | 35 |
| 800019 (kG*kG*k[5mC]*dA*dA*dA*dA*d[5mC]*dT*d[5mC]*dA*d[5mC]*dA*kG*kT*k[5mC]; antisense) [compound 800019] | 61 |
| 830036 (antisense kT*kA*kT*dT*dG*dG*d[5mC]*dT*dG*dA*dT*d[5mC]*dT*kG*kG*kA) [compound 830036] | 52 |
| 798870 (kG*kG*kG*dA*dA*d[5mC]*dA*d[5mC]*d[5mC]*dT*dT*dG*dT*kG*kT*kA; antisense) [compound 798870] | 14 |
| 800106 (antisense k[5mC]*kA*kG*dA*dG*dA*dG*dG*dG*dT*dT*dA*dG*kT*kG*kG) [compound 800106] | 12 |
| 799923 (antisense kG*k[5mC]*k[5mC]*dT*dA*d[5mC]*dA*dT*dA*dT*dT*dT*d[5mC]*kG*k[5mC]*kA) [compound 799923] | 15 |
| 799984 (kA*k[5mC]*kA*dT*d[5mC]*dA*d[5mC]*d[5mC]*dA*d[5mC]*dG*d[5mC]*d[5mC]*kT*k[5mC]*kG; antisense) [compound 799984] | 61 |
| 830117 (k[5mC]*k[5mC]*kA*d[5mC]*d[5mC]*d[5mC]*dT*dA*dA*dA*d[5mC]*dT*dG*kA*kG*k[5mC]; antisense) [compound 830117] | 5 |
| 830071 (kT*k[5mC]*kA*dA*dA*dG*dG*dT*dA*dA*dG*d[5mC]*d[5mC]*kA*kG*k[5mC]; antisense) [compound 830071] | 45 |
| 799409 (antisense k[5mC]*kT*kA*d[5mC]*d[5mC]*dT*dA*dA*dT*dG*dT*d[5mC]*dA*kA*k[5mC]*kA) [compound 799409] | 34 |
| 830081 (kG*kT*kG*dT*dA*dT*dA*d[5mC]*d[5mC]*d[5mC]*dT*dG*d[5mC]*kA*k[5mC]*kT; antisense) [compound 830081] | 0 |

same assay, conditions: Hep3B cells, electroporation with 10,000 nM antisense oligonucleotide, approximately 24 hours, primer probe set RTS5062, relative to untreated control cells

| Substance | % inhibition of SMAD7 mRNA expression [%] | % Inhibition [%] |
| --- | --- | --- |
| 798704 (antisense k[5mC]*kT*kG*dT*d[5mC]*d[5mC]*dG*dT*d[5mC]*dG*d[5mC]*d[5mC]*d[5mC]*k[5mC]*kT*kT) [compound 798704] | 61 |  |
| 799152 (antisense kT*kG*kT*d[5mC]*dA*dG*d[5mC]*d[5mC]*dT*dA*dG*dG*dA*kT*kG*kG) [compound 799152] | 33 |  |
| 798759 (kG*kG*k[5mC]*dG*dG*d[5mC]*dT*dG*d[5mC]*dG*d[5mC]*dA*dG*kG*k[5mC]*kT; antisense) [compound 798759] | 40 |  |
| 799099 (antisense kA*kA*kA*dA*dA*d[5mC]*d[5mC]*dT*dG*dA*dT*dG*dT*k[5mC]*kA*k[5mC]) [compound 799099] |  | 44 |
| 799098 (antisense kA*kA*kA*dA*d[5mC]*d[5mC]*dT*dG*dA*dT*dG*dT*d[5mC]*kA*k[5mC]*k[5mC]) [compound 799098] |  | 38 |
| 799149 (antisense kG*kG*kA*dT*dG*dG*dT*dA*d[5mC]*d[5mC]*dT*dT*dG*kG*kG*kT) [compound 799149] | 46 |  |
| 798933 (antisense kG*k[5mC]*kA*d[5mC]*dT*d[5mC]*dA*dG*dG*dA*dG*dG*dA*kA*kA*kA) [compound 798933] | 52 |  |
| 798732 (antisense kG*kG*kA*dT*dG*dG*dT*dG*dG*dT*dG*dA*d[5mC]*k[5mC]*kT*kT) [compound 798732] | 51 |  |
| 799461 (antisense k[5mC]*kT*kG*d[5mC]*dG*dA*dG*dA*dG*dA*dA*dA*dA*kA*kG*kA) [compound 799461] | 62 |  |
| 798677 (antisense kA*k[5mC]*kA*d[5mC]*d[5mC]*dA*dT*dG*dA*dA*dG*dA*dA*kG*kT*k[5mC]) [compound 798677] | 36 |  |

same assay, conditions: Hep3B cells, electroporation, 10,000 nM antisense oligonucleotide, approximately 24 hours, RTS5062, relative to untreated control cells

| Substance | % inhibition of SMAD7 mRNA expression [%] |
| --- | --- |
| 799282 (antisense kA*k[5mC]*kA*dG*dA*d[5mC]*d[5mC]*dA*d[5mC]*dA*dG*d[5mC]*dA*k[5mC]*k[5mC]*kT) [compound 799282] | 16 |
| 799799 (kA*kA*kA*dA*d[5mC]*dA*dT*d[5mC]*d[5mC]*d[5mC]*dA*d[5mC]*dT*kT*k[5mC]*kT; antisense) [compound 799799] | 28 |
| 799835 (antisense kG*k[5mC]*kA*dG*dA*dT*dG*dT*dA*dT*dA*d[5mC]*dA*kA*kA*kT) [compound 799835] | 70 |

same assay, conditions: SMAD7 mRNA, Hep3B cells, electroporation with 10,000 nM antisense oligonucleotide, approximately 24 hours, primer probe set RTS5062, relative to untreated control cells

| Substance | % Inhibition [%] |
| --- | --- |
| 829856 (antisense kA*k[5mC]*k[5mC]*dA*dG*d[5mC]*dT*dG*dA*d[5mC]*dT*d[5mC]*dT*kT*kG*kT) [compound 829856] | 41 |
| 829909 (antisense k[5mC]*kG*kG*d[5mC]*dT*dA*d[5mC]*d[5mC]*dG*dG*d[5mC]*dT*dG*kT*kT*kG) [compound 829909] | 34 |
| 829799 (kT*k[5mC]*kG*dG*d[5mC]*dT*dA*dA*dG*dG*dT*dG*dA*kT*kG*kG; antisense) [compound 829799] | 51 |
| 829959 (kT*kT*kA*dT*dT*dA*dA*dT*dG*dG*dT*d[5mC]*dT*kG*k[5mC]*kT; antisense) [compound 829959] | 12 |
| 829955 (k[5mC]*kT*kT*dG*dT*d[5mC]*dA*d[5mC]*d[5mC]*d[5mC]*dG*dT*d[5mC]*kT*kG*kG; antisense) [compound 829955] | 52 |
| 829865 (antisense kG*kG*k[5mC]*dG*dG*dA*d[5mC]*dT*dT*dG*dA*dT*dG*kA*kA*kG) [compound 829865] | 30 |
